Results: patent US10195185B2, “3-(1H-imidazo[4,5-C]pyridin-2-yl)-1H-pyrazolo[4,3-B]pyridines and therapeutic uses thereof” (Samumed, LLC, priority 2015, dated 2019)

Assays:
Format in all cases: cell-based
[1] = tested on: IL-6 in human monocyte cell line (THP-1 cells); assay: IL-6 inhibition in LPS-stimulated THP-1 cells (HTRF); settings: IL-6 in LPS-stimulated THP-1 cells; for EC50: HTRF; for inhibition at 10 µM: read-out: percent inhibition in brackets beside EC50 >10 μM
Outline: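 Readout is the 665/620 nm HTRF ratio for secreted IL-6, normalized to DMSO wells, with EC50 from a variable-slope four-parameter fit, or % inhibition at 10 μM when above 10 μM. Cells (1% FBS, 24 h beforehand) got compound for 2 h, then LPS 500 ng/mL for 22 h at 37° C; top dose 10 μM, 0.1% DMSO.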

[2] = tested on: primary human mesenchymal stem cells (hMSCs); assay: Induction of chondrogenesis in hMSCs (nodule area, Rhodamine B / Nile Red); settings: TGF-β3 as positive control; for Emax: read-out: Max. Activity as % TGF-β3 activity; for EC50: concentration required to induce 50% levels of chondrogenesis, read-out: Conc (nM) of 50% TGF-β3 activity
Outline: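 Primary hMSCs (passage 3–6) in incomplete chondrogenic induction medium were treated 6 days at 37° C. with 1:3 dilutions (2700–10 nM in 96-well or 5000–2.2 nM in 384-well; 0.03% DMSO). Rhodamine B/Nile Red-stained nodule area was imaged, normalized to DMSO wells, and EC50 was set against TGF-β3 (10 ng/mL).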

SW480 colon cancer cells = assay: Cell viability assay (CellTiter-Blue), four days; settings: Homo sapiens, 96 h; for EC50: CellTiter-Blue cell viability; for inhibition at 10 µM: read-out: percent inhibition at 10 μM (given for EC50 of >10 μM)
Outline: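 Four-day viability readout in SW480 cells: compound at 0.0045–10 μM (1:3 series), DMSO controls in eight replicates, CellTiter-Blue fluorescence after ~3 h. Values are regression-derived EC50s, or percent inhibition at 10 μM when EC50 exceeds 10 μM.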

SMILES | EC50 [1] | Emax [2] | EC50 [2] | EC50 (SW480 colon cancer cells) | inhibition at 10 µM [1] | inhibition at 10 µM (SW480 colon cancer cells)
Cc1ccc(-c2nccc3[nH]c(-c4n[nH]c5ccc(-c6cncc(N)c6)nc45)nc23)s1 [Compound 395, 5-(3-(4-(5-Methylthiophen-2-yl)-1H-imidazo[4,5-c]pyridin-2-yl)-1H-pyrazolo[4,3-b]pyridin-5-yl)pyridin-3-amine] | 142 nM | 73% | 10 nM | 156 nM | – | –
CN(C)c1cncc(-c2ccc3[nH]nc(-c4nc5c(-c6cccc(F)c6)nccc5[nH]4)c3n2)c1 [Compound 7] | 3110 nM | 58% | 900 nM | 944 nM | – | –
Fc1cccc(-c2nccc3[nH]c(-c4n[nH]c5ccc(-c6ccncc6)nc45)nc23)c1 [Compound 18, 3-(4-(3-Fluorophenyl)-1H-imidazo[4,5-c]pyridin-2-yl)-5-(pyridin-4-yl)-1H-pyrazolo[4,3-b]pyridine] | > 10000 nM | 53% | 2 nM | 2780 nM | 4.6% | –
Cn1cc(-c2ccc3[nH]nc(-c4nc5c(-c6cccc(F)c6)nccc5[nH]4)c3n2)cn1 [Compound 508, 3-(4-(3-Fluorophenyl)-1H-imidazo[4,5-c]pyridin-2-yl)-5-(1-methyl-1H-pyrazol-4-yl)-1H-pyrazolo[4,3-b]pyridine] | > 10000 nM | 43% | – | 2200 nM | 0% | –
Fc1cccc(-c2nccc3[nH]c(-c4n[nH]c5ccc(-c6cnccn6)nc45)nc23)c1 [Compound 520, 3-(4-(3-Fluorophenyl)-1H-imidazo[4,5-c]pyridin-2-yl)-5-(pyrazin-2-yl)-1H-pyrazolo[4,3-b]pyridine] | > 10000 nM | 55% | 21 nM | > 10000 nM | 29.4% | 6.6%
Oc1cncc(-c2ccc3[nH]nc(-c4nc5c(-c6cccc(F)c6)nccc5[nH]4)c3n2)c1 [Compound 517, 5-(3-(4-(3-Fluorophenyl)-1H-imidazo[4,5-c]pyridin-2-yl)-1H-pyrazolo[4,3-b]pyridin-5-yl)pyridin-3-ol] | > 10000 nM | 57% | 7 nM | > 10000 nM | 54.4% | 3.5%
Cc1ccc(-c2nccc3[nH]c(-c4n[nH]c5ccc(-c6cncc(NC(=O)C(C)C)c6)nc45)nc23)s1 [Compound 401, N-(5-(3-(4-(5-Methylthiophen-2-yl)-1H-imidazo[4,5-c]pyridin-2-yl)-1H-pyrazolo [4,3-b]pyridin-5-yl)pyridin-3-yl)isobutyramide] | > 10000 nM | 56% | 1670 nM | > 10000 nM | 0% | 2.5%
CCCCC(=O)Nc1cncc(-c2ccc3[nH]nc(-c4nc5c(-c6cc(F)cc(NCCN(C)C)c6)nccc5[nH]4)c3n2)c1 [Compound 467, N-(5-(3-(4-(3-((2-(Dimethylamino)ethyl)amino)-5-fluorophenyl)-1H-imidazo[4,5-c]pyridin-2-yl)-1H-pyrazolo[4,3-b]pyridin-5-yl)pyridin-3-yl)pentanamide] | > 10000 nM | 52% | 100 nM | > 10000 nM | 33.1% | 0%
COc1cncc(-c2ccc3[nH]nc(-c4nc5c(-c6cccc(F)c6)nccc5[nH]4)c3n2)c1 [Compound 516, 3-(4-(3-Fluorophenyl)-1H-imidazo[4,5-c]pyridin-2-yl)-5-(5-methoxypyridin-3-yl)-1H-pyrazolo[4,3-b]pyridine] | > 10000 nM | 60% | 21 nM | 322 nM | 25.1% | –
CC(C)CC(=O)Nc1cncc(-c2ccc3[nH]nc(-c4nc5c(-c6cccc(F)c6)nccc5[nH]4)c3n2)c1 [Compound 2, N-(5-(3-(4-(3-Fluorophenyl)-1H-imidazo[4,5-c]pyridin-2-yl)-1H-pyrazolo [4,3-b]pyridin-5-yl)pyridin-3-yl)-3-methylbutanamide] | > 10000 nM | 58% | 21 nM | 2700 nM | 2.5% | –
